Laboratory results from US20070128217A1 (priority 2003, published 2007).

How the values were obtained:
[1] = test system: antibodies in sera from SARS patients (sera 1a, 1b, 2, 6, 37, 62, London, SARS-yellow, SARS-green); format: binding, human; design: Binding of serum 6 to linear peptides of protein X1 of SARS-CoV Urbani / Binding of serum 37 to linear peptides of protein X1 of SARS-CoV Urbani / Binding of serum 6 to looped/cyclic peptide (PEPSCAN-ELISA) / Binding of serum 37 to looped/cyclic peptide (PEPSCAN-ELISA) / Binding of serum 37 to looped/cyclic peptides of protein X1 of SARS-CoV Urbani / Binding of serum 6 to linear peptides of protein X2 / Binding of serum 37 to linear peptides of protein X2 / Binding of serum 37 to looped/cyclic peptides of protein X2 of SARS-CoV Urbani / Binding of serum 6 to linear peptides of protein M of SARS-CoV Urbani / Binding of serum 37 to linear peptides of protein M of SARS-CoV Urbani / Binding of serum 6 to looped/cyclic peptides of protein M of SARS-CoV Urbani / Binding of serum 37 to looped/cyclic peptides of protein M of SARS-CoV Urbani / Binding of serum 6 to linear peptides of protein X3 of SARS-CoV Urbani / Binding of serum 37 to linear peptides of protein X3 of SARS-CoV Urbani / Binding of serum 37 to looped/cyclic peptides of protein X3 of SARS-CoV Urbani / Binding of serum 6 to linear peptides of protein X4 of SARS-CoV Urbani / Binding of serum 37 to linear peptides of protein X4 of SARS-CoV Urbani / Binding of serum 37 to looped/cyclic peptides of protein X4 of SARS-CoV Urbani / Binding of serum 6 to linear peptides of protein X5 of SARS-CoV Urbani / Binding of serum 37 to linear peptides of protein X5 of SARS-CoV Urbani / Binding of serum 37 to looped/cyclic peptides of protein X5 of SARS-CoV Urbani / Binding of serum 6 to linear peptides of protein N of SARS-CoV Urbani / Binding of serum 37 to linear peptides of protein N of SARS-CoV Urbani / Binding of serum 6 to linear peptide (PEPSCAN-ELISA) / Binding of serum 1a to looped/cyclic peptides of protein N of SARS-CoV Urbani / Binding of serum 1b to looped/cyclic peptides of protein N of SARS-CoV Urbani / Binding of serum 2 to looped/cyclic peptides of protein N of SARS-CoV Urbani / Binding of serum 6 to looped/cyclic peptides of protein N of SARS-CoV Urbani / Binding of serum 37 to looped/cyclic peptides of protein N of SARS-CoV Urbani / Binding of serum 62 to looped/cyclic peptides of protein N of SARS-CoV Urbani / Binding of serum London to looped/cyclic peptides of protein N of SARS-CoV Urbani / Binding of serum SARS-green to looped/cyclic peptides of protein N of SARS-CoV Urbani: unit not given here
[2] = test system: control sera (pooled serum of ten healthy LUMC hospital workers; commercial negative donor pooled serum from the Dutch bloodbank); format: binding, human; design: Binding of Control serum LUMC to linear peptides / Binding of Control serum Blood-bank to linear peptides / Binding of Control serum LUMC to looped peptides / Binding of Control Serum Blood-Bank to Looped peptides / Binding of Control serum LUMC to linear peptides of the protein M of SARS-CoV Urbani / Binding of Control serum Blood-bank to linear peptides of the protein M of SARS-CoV Urbani / Binding of Control serum LUMC to looped peptides of the protein M of SARS-CoV Urbani / Binding of Control Serum Blood-Bank to Looped peptides of the protein M of SARS-CoV Urbani: unit not given here
[3] = test system: rabbit serum obtained by immunizing a rabbit with the SARS-CoV strain Frankfurt 1; format: binding; design: Binding of a rabbit serum to linear peptides / Binding of a rabbit serum to looped peptides / Rabbit serum linear peptides / Rabbit serum looped peptides / Binding of a rabbit serum to linear peptides of protein N of SARS-CoV Urbani (Rabbit serum linear peptides) / Binding of a rabbit serum to looped/cyclic peptides of protein N of SARS-CoV Urbani (Rabbit serum looped peptides): unit not given here

IMLLQFAYSNRNRFL was tested, and the “Binding of serum 1a to linear peptides of protein M of SARS-CoV Urbani” value [1] was 0.7, the “Binding of serum 1a to looped/cyclic peptides of protein M of SARS-CoV Urbani” value [1] was 0.6 and the “Binding of serum 1b to linear peptides of protein M of SARS-CoV Urbani” value [1] was 0.5. For the same sequence, the “Binding of serum 1b to looped/cyclic peptides of protein M of SARS-CoV Urbani” value [1] was 0.4, the “Binding of serum 2 to linear peptides of protein M of SARS-CoV Urbani” value [1] was 0.4 and the “Binding of serum 2 to looped/cyclic peptides of protein M of SARS-CoV Urbani” value [1] was 0.6. For the same sequence, the “Binding of serum 6 to linear peptides of protein M of SARS-CoV Urbani” value [1] was 0.4, the “Binding of serum 6 to looped/cyclic peptides of protein M of SARS-CoV Urbani” value [1] was 1.0 and the “Binding of serum 37 to linear peptides of protein M of SARS-CoV Urbani” value [1] was 0.4. For the same sequence, the “Binding of serum 37 to looped/cyclic peptides of protein M of SARS-CoV Urbani” value [1] was 0.6, the “Binding of serum 62 to linear peptides of protein M of SARS-CoV Urbani” value [1] was 0.3 and the “Binding of serum 62 to looped/cyclic peptides of protein M of SARS-CoV Urbani” value [1] was 0.5. The “Binding of serum London to linear peptides of protein M of SARS-CoV Urbani” value [1] was 0.3, the “Binding of serum London to looped/cyclic peptides of protein M of SARS-CoV Urbani” value [1] was 0.6 and the “Binding of serum SARS-green to linear peptides of protein M of SARS-CoV Urbani” value [1] was 0.4. For the same sequence, the “Binding of serum SARS-green to looped/cyclic peptides of protein M of SARS-CoV Urbani” value [1] was 0.3, the “Binding of serum SARS-yellow to linear peptides of protein M of SARS-CoV Urbani” value [1] was 0.2 and the “Binding of serum SARS-yellow to looped/cyclic peptides of protein M of SARS-CoV Urbani” value [1] was 0.6. For the same sequence, the “Binding of Control Serum Blood-Bank to Looped peptides of the protein M of SARS-CoV Urbani” value [2] was 0.5, the “Binding of Control serum Blood-bank to linear peptides of the protein M of SARS-CoV Urbani” value [2] was 0.5 and the “Binding of Control serum LUMC to linear peptides of the protein M of SARS-CoV Urbani” value [2] was 0.6. The “Binding of Control serum LUMC to looped peptides of the protein M of SARS-CoV Urbani” value [2] was 0.6, the “Rabbit serum linear peptides” value [3] was 0.2 and the “Rabbit serum looped peptides” value [3] was 0.5.

LESTQITTDTGIENA was tested, and the “Binding of serum 1a to linear peptides of protein X1 of SARS-CoV Urbani” value [1] was 0.6, the “Binding of serum 1a to looped/cyclic peptides of protein X1 of SARS-CoV Urbani” value [1] was 0.4 and the “Binding of serum 1b to linear peptides of protein X1 of SARS-CoV Urbani” value [1] was 0.5. For the same sequence, the “Binding of serum 1b to looped/cyclic peptides of protein X1 of SARS-CoV Urbani” value [1] was 0.3, the “Binding of serum 2 to linear peptides of protein X1 of SARS-CoV Urbani” value [1] was 0.4 and the “Binding of serum 2 to looped/cyclic peptides of protein X1 of SARS-CoV Urbani” value [1] was 0.2. The “Binding of serum 6 to linear peptides of protein X1 of SARS-CoV Urbani” value [1] was 0.4, the “Binding of serum 6 to looped/cyclic peptides of protein X1 of SARS-CoV Urbani” value [1] was 0.2 and the “Binding of serum 37 to linear peptides of protein X1 of SARS-CoV Urbani” value [1] was 0.5. The “Binding of serum 37 to looped/cyclic peptides of protein X1 of SARS-CoV Urbani” value [1] was 0.3, the “Binding of serum 62 to linear peptides of protein X1 of SARS-CoV Urbani” value [1] was 0.4 and the “Binding of serum 62 to looped/cyclic peptides of protein X1 of SARS-CoV Urbani” value [1] was 0.4. For the same sequence, the “Binding of serum London to linear peptides of protein X1 of SARS-CoV Urbani” value [1] was 0.2, the “Binding of serum London to looped/cyclic peptides of protein X1 of SARS-CoV Urbani” value [1] was 0.2 and the “Binding of serum SARS-green to linear peptides of protein X1 of SARS-CoV Urbani” value [1] was 0.1. For the same sequence, the “Binding of serum SARS-green to looped/cyclic peptides of protein X1 of SARS-CoV Urbani” value [1] was 0.2, the “Binding of serum SARS-yellow to linear peptides of protein X1 of SARS-CoV Urbani” value [1] was 0.2 and the “Binding of serum SARS-yellow to looped/cyclic peptides of protein X1 of SARS-CoV Urbani” value [1] was 0.3. For the same sequence, the “Binding of Control Serum Blood-Bank to Looped peptides” value [2] was 0.4, the “Binding of Control serum Blood-bank to linear peptides” value [2] was 0.3 and the “Binding of Control serum LUMC to linear peptides” value [2] was 0.4. The “Binding of Control serum LUMC to looped peptides” value [2] was 0.4, the “Binding of a rabbit serum to linear peptides” value [3] was 0.1 and the “Binding of a rabbit serum to looped peptides” value [3] was 0.5.
